According to ChEMBL document CHEMBL1201862, “PubChem BioAssay data set” (2004):
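Briefly, cells in 96-well plates were exposed to five compound concentrations for 48 h, and endpoints were estimated by linear interpolation. At the GI50, growth is halved.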 Activity calls are given as the source filed them. Cut-off read from the data, not from the text of the source: active = GI50 up to about 1.1 µM and inactive = higher.

Key:
Assay in all cases: NCI-60 cell line screen, 48 h
SF-268 = tested on: SF-268
NCI-H226 = tested on: NCI-H226
SN12C = tested on: SN12C
OVCAR-4 = tested on: OVCAR-4
MOLT-4 = tested on: MOLT-4
UACC-62 = tested on: UACC-62
HT-29 = tested on: HT-29
HL-60 = tested on: HL-60
EKVX = tested on: EKVX
TK-10 = tested on: TK-10
Malme-3M = tested on: Malme-3M
NCI-H460 = tested on: NCI-H460
OVCAR-3 = tested on: OVCAR-3
M14 = tested on: M14
RPMI-8226 = tested on: RPMI-8226
HCC 2998 = tested on: HCC 2998

Compound | GI50 (SF-268) | GI50 (NCI-H226) | GI50 (SN12C) | GI50 (OVCAR-4) | GI50 (MOLT-4) | GI50 (UACC-62) | GI50 (HT-29) | GI50 (HL-60) | GI50 (EKVX) | GI50 (TK-10) | GI50 (Malme-3M) | GI50 (NCI-H460) | GI50 (OVCAR-3) | GI50 (M14) | GI50 (RPMI-8226) | GI50 (HCC 2998)
N#Cc1ccc(Cc2ccccn2)cc1Cl | > 100 µM (inactive) | > 100 µM (inactive) | > 100 µM (inactive) | > 100 µM (inactive) | > 100 µM (inactive) | > 100 µM (inactive) | > 100 µM (inactive) | > 100 µM (inactive) | > 100 µM (inactive) | > 100 µM (inactive) | > 100 µM (inactive) | > 100 µM (inactive) | – | – | – | –
Cc1cc([N+](=O)[O-])c(C)c2c1[nH]c1ccc(O)cc12 | > 100 µM (inactive) | > 100 µM (inactive) | > 100 µM (inactive) | > 100 µM (inactive) | 59.2 µM (inactive) | – | > 100 µM (inactive) | 16.2 µM (inactive) | > 100 µM (inactive) | > 100 µM (inactive) | > 100 µM (inactive) | > 100 µM (inactive) | 60.4 µM (inactive) | > 100 µM (inactive) | 11.1 µM (inactive) | > 100 µM (inactive)
CCOC(=O)NC/C=C/COC1CCCCO1 (stereo not given) | > 100 µM (inactive) | > 100 µM (inactive) | > 100 µM (inactive) | > 100 µM (inactive) | > 100 µM (inactive) | > 100 µM (inactive) | – | > 100 µM (inactive) | – | > 100 µM (inactive) | > 100 µM (inactive) | > 100 µM (inactive) | – | > 100 µM (inactive) | > 100 µM (inactive) | > 100 µM (inactive)
Nc1ccc2nc(Nc3ccc(F)cc3)cnc2c1 | 74.5 µM (inactive) | > 100 µM (inactive) | > 100 µM (inactive) | > 100 µM (inactive) | 27.7 µM (inactive) | – | > 100 µM (inactive) | 54.7 µM (inactive) | > 100 µM (inactive) | 87.3 µM (inactive) | > 100 µM (inactive) | > 100 µM (inactive) | 90.4 µM (inactive) | > 100 µM (inactive) | 61.7 µM (inactive) | > 100 µM (inactive)
COC1=CC(=O)C2(C=C1OC)OC[C@H]1Oc3c(ccc4c3C=CC(C)(C)O4)C(=O)[C@H]12 (stereo not given in full) | – | – | – | – | 27.4 µM (inactive) | 47.1 µM (inactive) | 49.2 µM (inactive) | 15.6 µM (inactive) | 27.4 µM (inactive) | 79.3 µM (inactive) | 57 µM (inactive) | 49.2 µM (inactive) | 42.4 µM (inactive) | 41.7 µM (inactive) | 22.6 µM (inactive) | 86.5 µM (inactive)
COc1ccc(C(=C(C#N)C#N)c2ccc(OC)cc2)cc1 | > 100 µM (inactive) | > 100 µM (inactive) | > 100 µM (inactive) | > 100 µM (inactive) | > 100 µM (inactive) | > 100 µM (inactive) | > 100 µM (inactive) | > 100 µM (inactive) | > 100 µM (inactive) | > 100 µM (inactive) | – | > 100 µM (inactive) | > 100 µM (inactive) | > 100 µM (inactive) | > 100 µM (inactive) | > 100 µM (inactive)
NC(=O)/N=C1/CCC2C3CCCC2C13 | > 100 µM (inactive) | 81.5 µM (inactive) | > 100 µM (inactive) | > 100 µM (inactive) | > 100 µM (inactive) | > 100 µM (inactive) | > 100 µM (inactive) | > 100 µM (inactive) | > 100 µM (inactive) | > 100 µM (inactive) | – | > 100 µM (inactive) | > 100 µM (inactive) | > 100 µM (inactive) | > 100 µM (inactive) | > 100 µM (inactive)
C[N+](C)(C)CC(=O)NC(=O)N/N=C\C(CC#N)CN(Cc1ccccc1)Cc1ccccc1 (stereo not given) | > 100 µM (inactive) | 37.5 µM (inactive) | > 100 µM (inactive) | > 100 µM (inactive) | > 100 µM (inactive) | > 100 µM (inactive) | > 100 µM (inactive) | > 100 µM (inactive) | > 100 µM (inactive) | > 100 µM (inactive) | 58.2 µM (inactive) | > 100 µM (inactive) | > 100 µM (inactive) | > 100 µM (inactive) | – | 66.4 µM (inactive)
COc1ccc(/C=C2\C(=O)Nc3ccccc32)cc1OC | > 100 µM (inactive) | > 100 µM (inactive) | > 100 µM (inactive) | 97.3 µM (inactive) | > 100 µM (inactive) | > 100 µM (inactive) | > 100 µM (inactive) | 46.7 µM (inactive) | > 100 µM (inactive) | > 100 µM (inactive) | > 100 µM (inactive) | 78.9 µM (inactive) | – | > 100 µM (inactive) | 23.1 µM (inactive) | –
CC1=CCC23C(C1)OC(Br)(C=CC2(C)O)C3(C)C (stereo not given) | > 100 µM (inactive) | > 100 µM (inactive) | > 100 µM (inactive) | > 100 µM (inactive) | – | > 100 µM (inactive) | > 100 µM (inactive) | > 100 µM (inactive) | > 100 µM (inactive) | > 100 µM (inactive) | > 100 µM (inactive) | > 100 µM (inactive) | – | – | – | > 100 µM (inactive)
O=C(N/C(=C\c1ccc(Cl)cc1)c1nc2ccccc2[nH]1)c1ccccc1 | 16.3 µM (inactive) | 22.2 µM (inactive) | 21.9 µM (inactive) | 14.7 µM (inactive) | 16.5 µM (inactive) | 16 µM (inactive) | 27.8 µM (inactive) | – | 26.9 µM (inactive) | 30.3 µM (inactive) | 34 µM (inactive) | 22.1 µM (inactive) | 19.6 µM (inactive) | 18.7 µM (inactive) | 16.7 µM (inactive) | –
COC(=O)c1cc2c(=O)n(C)c3ccccc3n2c1C(=O)OC | 30.3 µM (inactive) | 30.3 µM (inactive) | 42.5 µM (inactive) | > 100 µM (inactive) | > 100 µM (inactive) | > 100 µM (inactive) | 67.5 µM (inactive) | – | 26.9 µM (inactive) | 25.6 µM (inactive) | > 100 µM (inactive) | > 100 µM (inactive) | 30 µM (inactive) | 47.9 µM (inactive) | 71.9 µM (inactive) | 33.5 µM (inactive)
CC[C@H]1CC(=O)c2c(cc3c(c2O)C(=O)c2ccccc2C3=O)[C@@]1(C#N)C(=O)OC(C)(C)C | 5.36 µM (inactive) | 3.32 µM (inactive) | 3.97 µM (inactive) | – | 2.33 µM (inactive) | 4.35 µM (inactive) | 3.37 µM (inactive) | – | 4.94 µM (inactive) | 4.78 µM (inactive) | 4.92 µM (inactive) | 2.7 µM (inactive) | 2.81 µM (inactive) | 3.65 µM (inactive) | 3.33 µM (inactive) | 5.47 µM (inactive)
CN(C)CCNC(=O)c1cc2ccccc2c2nc3ccccc3nc12 | 0.0617 µM (active) | 0.841 µM (active) | 0.736 µM (active) | 0.792 µM (active) | 0.153 µM (active) | 2 µM (inactive) | 0.536 µM (active) | – | 2.06 µM (inactive) | 1.23 µM (inactive) | 0.818 µM (active) | – | 2.1 µM (inactive) | 1.75 µM (inactive) | 0.522 µM (active) | 1.1 µM (active)
